In PMC9246256, “Structure-based optimization of type III indoleamine 2,3-dioxygenase 1 (IDO1) inhibitors” (Journal of Enzyme Inhibition and Medicinal Chemistry, 2022):
pIC50: −log10 of the molar value. Values joined by “and” are separate entries in the source; they are usually repeats but may differ in a detail not shown here. Equal entries are not always repeated.

Experiments:
hIDO1 = biological target: T1, hIDO1 (Homo sapiens, UniProt P14902); assay: Cellular hIDO1 inhibition (kynurenine production) in transiently transfected HEK 293 T cells; format: cell-based
T1 construct: The full ORF of hIDO1 was cloned into the mammalian expression vector pcDNA6/myc-His; myc-His (vector-encoded); host or cells: HEK 293 T
Procedure: (§1) We tested the cellular hIDO1 inhibitory activity and toxicity of 30 active compounds at a single concentration (Figure 6 and Table 8). As some of the aniline derivatives reacted with Ehrlich’s reagent (p-dimethylaminobenzaldehyde, p-DMAB) used to quantify kynurenine, the kynurenine content of these samples was determined by HPLC. To be able to detect also weak inhibition, compounds were tested at the high concentration of 200 µM (Figure 6A and B, filled bars), except for less soluble compounds (52, 148, 149 and 153), which were tested at a concentration of 50 µM (Figure 6A and B, empty bars).
The cDNA encoding hIDO1 (NCBI, NM 0021464.3) was purchased from Origene as pCMV6-Entry vector (RC206592). The full ORF of hIDO1 was cloned into the mammalian expression vector pcDNA6/myc-His from Invitrogen. Human embryonic kidney 293 T (HEK 293 T) cells were transiently transfected with the plasmid construct encoding hIDO1. A 75 cm^2 flask containing HEK 293 T cells at a confluency of 70% was transfected with jetPEI DNA transfection reagent (Polyplus-transfection), according to manufacturer’s protocol. A total of 20 µg of pcDNA-IDO1 along with 5 µg of pcDNA-GFP plasmid were used for the transfection; GFP was used to evaluate transfection efficiency prior to the cellular assays. 16–18 h post-transfection the 293 T cells were detached with trypsin, centrifuged, and re-suspended in 25 mL of DMEM medium without phenol red, supplemented with penicillin and streptomycin, 10% foetal bovine serum and 1 mM pyruvate (Gibco). Subsequently, 100 µL of cells were distributed to each well of two 96-well round-bottom plates that had been pre-loaded with 100 µL DMEM and the small organic test molecule in DMSO (for a final DMSO concentration of 2%). DMEM medium contains 78 µM L-Trp and was supplemented with 500 µM of L-Trp. Cells transfected with hIDO1 were incubated for 7 h at 37 °C in a CO2 incubator. The reaction was stopped in its linear phase by adding trichloroacetic acid (TCA) to the medium at a final concentration of 4%. Plates were centrifuged for 15 min at 4,000 rpm. 100 µL of supernatant was added to 100 µL of 2% (w/v) DMAB in glacial acetic acid. After 10 min the absorbance was measured at a wavelength of 480 nm to detect kynurenine formation. Alternatively, kynurenine content was determined by HPLC as done for the enzymatic assay.

[1] = biological target: T2, purified recombinant IDO1 (Homo sapiens, UniProt P14902); assay: Enzymatic IDO1 inhibition assay (ascorbate/methylene blue reduction system, HPLC detection of kynurenine); format: biochemical; conditions: for pIC50: enzymatic, L-Trp 100 µM, 0.01% Triton X-100, 5% DMSO, 20 min at room temperature, pH 6.5, duplicates, read-out: IC50 [ μ M] (SD); for LE [kcal/mol/HA]: ligand efficiency, LE = -RT log(IC50)/number of heavy atoms, from enzymatic IC50
T2 construct: Full-length human IDO1 gene was cloned into the pET-28a vector; inferred from pET-28a vector and HisTrap purification; made in house; host or cells: E. coli Rosetta (DE3)

HEK 293 T cells = assay: Cell viability / cellular toxicity (DAPI staining, cytometry); format: cell-based, human; conditions: compound 200 µM, 7 h
Procedure: as §1
Following DMSO (negative control) or inhibitor treatments, apoptotic cells were detected by 4′,6-diamidino-2-phenylindole (DAPI) staining. Briefly, after 7 h of incubation, cells were washed with PBS, resuspended in PBS with 1 µg/mL DAPI and immediately analysed using a BD LSR II cytometer. A 405 nm laser with 450/50 nm bandpass filter was used to collect data.

T2 sequence (P14902 whole entry): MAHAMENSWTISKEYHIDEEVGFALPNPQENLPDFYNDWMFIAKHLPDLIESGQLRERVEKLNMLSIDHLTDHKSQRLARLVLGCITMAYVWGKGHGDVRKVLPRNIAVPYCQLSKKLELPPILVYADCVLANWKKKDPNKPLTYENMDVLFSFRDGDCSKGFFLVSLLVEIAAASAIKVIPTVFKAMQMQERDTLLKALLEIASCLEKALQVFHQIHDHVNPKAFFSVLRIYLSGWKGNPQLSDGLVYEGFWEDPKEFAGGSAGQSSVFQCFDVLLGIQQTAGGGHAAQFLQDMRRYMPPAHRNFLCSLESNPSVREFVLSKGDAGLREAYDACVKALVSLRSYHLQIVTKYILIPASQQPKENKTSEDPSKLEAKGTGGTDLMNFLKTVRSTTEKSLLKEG
T1 sequence (P14902 whole entry): as above

SMILES | inhibition at 200 µM (hIDO1) | pIC50 [1] | LE [kcal/mol/HA] [1] | Tox. [%] (HEK 293 T cells)
O=C(c1ccc(F)cc1)c1cnn[nH]1 [Compound 110, (4-Fluorophenyl)(1H-1,2,3-triazol-5-yl)methanone] | 12% | 3.73 and 3.72 | 0.36 kcal/mol/HA | 0 (0) %
O=C(c1cnn[nH]1)c1ccco1 [Compound 114, Furan-2-yl(1H-1,2,3-triazol-5-yl)methanone] | 20% | 3.64 | 0.41 kcal/mol/HA | 0 (0) %
O=C(c1ccc(Cl)cc1)c1cnn[nH]1 [Compound 102, (4-Chlorophenyl)(1H-1,2,3-triazol-5-yl)methanone] | 37% | 4.51 | 0.44 kcal/mol/HA | 0 (0) %
COc1ccc(C(=O)c2cnn[nH]2)cc1 [Compound 105, (4-Methoxyphenyl)(1H-1,2,3-triazol-5-yl)methanone] | 22% | 3.70 | 0.34 kcal/mol/HA | 0 (0) %
O=C(c1cccnc1)c1cnn[nH]1 [Compound 121, Pyridin-3-yl(1H-1,2,3-triazol-5-yl)methanone] | 3.9% | 3.19 | 0.33 kcal/mol/HA | 0 (0) %
O=C(c1ccoc1)c1cnn[nH]1 [Compound 115, Furan-3-yl(1H-1,2,3-triazol-5-yl)methanone] | 73% | 4.80 | 0.55 kcal/mol/HA | 0 (0) %
Nc1cccc(N)c1-c1nc[nH]n1 [Compound 142, 2-(1H-1,2,4-triazol-3-yl)benzene-1,3-diamine] | 56% | 4.51 | 0.47 kcal/mol/HA | 11 (0.4) %
Clc1ccc(-c2c[nH]nn2)c(Cl)c1 [Compound 48, 4–(2,4-Dichlorophenyl)-1,2,3-triazole] | 63% | 4.51 | 0.47 kcal/mol/HA | 0 (0) %
Clc1ccc(-c2c[nH]nn2)cc1Cl [Compound 49, 4–(3,4-Dichlorophenyl)-1,2,3-triazole] | 65% | 4.29 | 0.45 kcal/mol/HA | 0 (0) %
O=C(c1cnn[nH]1)c1ccccc1O [Compound 106, (2-Hydroxyphenyl)(1H-1,2,3-triazol-5-yl)methanone] | 12% | 3.90 and 3.89 | 0.38 kcal/mol/HA | 0 (0) %
O=C(c1cnn[nH]1)c1ccc(Cl)cc1O [Compound 112, (4-Chloro-2-hydroxyphenyl)(1H-1,2,3-triazol-5-yl)methanone] | 32% | 4.96 | 0.45 kcal/mol/HA | 0 (0) %
O=C(c1cnn[nH]1)c1cccs1 [Compound 116, Thiophen-2-yl(1H-1,2,3-triazol-5-yl)methanone] | 62% | 4.77 | 0.54 kcal/mol/HA | 0 (0) %
O=C(c1ccc(Br)cc1)c1cnn[nH]1 [Compound 109, (4-Bromophenyl)(1H-1,2,3-triazol-5-yl)methanone] | 55% | 4.89 | 0.48 kcal/mol/HA | 0 (0) %
Brc1ccc(Nc2c[nH]nn2)cc1 [Compound 78, N-(4-Bromophenyl)-1,2,3-triazol-4-amine, reference compound] | 97% | 4.28 | 0.45 kcal/mol/HA | 0 (0) %
O=C(c1ccsc1)c1cnn[nH]1 [Compound 117, Thiophen-3-yl(1H-1,2,3-triazol-5-yl)methanone] | 23% | 4.17 | 0.47 kcal/mol/HA | 0 (0) %
